Data on three compounds can be found in PubChem BioAssay AID2060617 (Molecular Pharmacology Branch, DTP, NCI, 2025).

One may read the viability, T/C as the ratio of treated to control. A word on the IC50: it is the concentration at which inhibition is half-maximal.

Several values for one entry are separate records, joined by “and”; a condition that tells them apart may be missing. Equal values may be shown once. Bounds are passed on as bounds.

The test system of the assay is 485368-065-R4-J2-PDC spheroids with HUVEC/MSC, viability. Kind of assay: Anticancer human tumor 485368-065-R4-J2-PDC patient-derived pancreatic carcinoma cell line growth inhibition [CLK]. The conditions noted are these: for viability, T/C: stronger effect = lower value. The text has this:
A high-throughput screen of multi-cell type tumor spheroids was designed to identify active combinations of […] and targeted small molecules. Complex spheroids include a stromal component modeled by human endothelial cells (HUVEC) and fibroblasts modeled by human mesenchymal stem cells (MSCs). The concentration ranges selected for each drug and investigational agent were based upon clinically achievable concentrations if the clinical Cmax of the agent was known.
Compounds. The drugs and investigational agents: cirtuvivint (SM08502; NSC835563), CC-671 (NSC850746), vemurafenib (NSC761431), tapotoclax (NSC804041), sotorasib (NSC818433), adagrasib (NSC831453), MRTX-1133 (NSC836407), BAY2416964 (NSC825713), copanlisib (NSC816437), inavolisib (NSC800729), abemaciclib (NSC768073), osimertinib (NSC779217), entinostat (NSC756642), eltanexor (KPT-8602, NSC794443), venetoclax (NSC766270), ceralasertib (NSC777638), bortezomib (NSC756655), olaparib (NSC753686), talazoparib (NSC767125), alisertib (NSC759677), peposertib (NSC802822), gemcitabine (NSC613327), 5-fluorouracil (NSC19893), SN-38 (NSC673596), oxaliplatin (NSC266046), paclitaxel (NSC125973), and doxorubicin (NSC123127), were obtained from the National Cancer Institute (NCI) Developmental Therapeutics Program Chemical Repository. The FDA-approved anticancer drug set is available from the Developmental Therapeutics Program at https://dtp.cancer.gov/organization/dscb/obtaining/available plates.htm. […] The stock solutions were prepared in dimethyl sulfoxide (DMSO, Sigma-Aldrich, St. Louis, MO, cat. D2650), except for the platinum complexes which were prepared in saline (Quality Biological, Gaithersburg, MD, cat. 114-055-101), at 800-fold the tested concentration and stored at -70 degrees C prior to their use. All drugs and investigational agents were tested over a range starting from a high concentration at or near the clinical Cmax and decreasing in half-log increments. If the clinical Cmax for an agent had not been determined, the highest concentration tested was 10 microM.
Cell Culture. All cells were maintained in an incubator at 37 degrees C and 5% CO2 with 95% humidity. The PDC lines were cultured according to standard operating procedures established by the NCI PDMR. Briefly, all PDCs were thawed and cultured in Matrigel-coated flasks prepared with a working solution of 1X Ham's F-12 nutrient mix, without supplementation (Invitrogen, Waltham, MA, cat. 11765054), 100 U/mL penicillin-streptomycin (Invitrogen, cat. 15140122), and 2.5% Matrigel (Corning Inc., Corning, NY, cat. 354248) for the first three passages. The 947758-054-R-J2-PDC line was cultured in 6B/Colon 1A media, which includes advanced DMEM/F-12 (Thermo Fisher Scientific, cat. 12634028), 10 mM HEPES (Thermo Fisher Scientific, cat. 15630080), 1X GlutaMAX supplement (Thermo Fisher Scientific, cat. 35050061), 0.1 mg/mL primocin (InvivoGen, cat. ant-pm-2), 10% defined fetal bovine serum, heat inactivated (HyClone Laboratories Inc., cat. SH30070.03HI), 1.25 mM N-Acetyl-L-cysteine (Sigma-Aldrich, cat. A9165), 10 mM nicotinamide (Sigma-Aldrich, cat. N0636), 1X B-27 supplement (Thermo Fisher Scientific, cat. 17504044), 1X N-2 supplement (Thermo Fisher Scientific, cat. 17502048), and 10 microM Y-27632 dihydrochloride (Tocris Bioscience, cat. 1254). The 876862-298-R-J1-PDC was cultured in 6E media, which includes all 6B/Colon 1A media components plus 50% L-WRN conditioned media (ATCC, cat. CRL-3276), 50 ng/mL recombinant human EGF recombinant protein (hEGF; Thermo Fisher Scientific, cat. PHG0311), 10 ng/mL recombinant human fibroblast growth factor 10 (hGFG-10; PeproTech, cat. 100-26), 1 ng/mL recombinant human fibroblast growth factor 2 (hFGF-2; PeproTech, cat. 100-18B), and 1 µM prostaglandin E2 (PGE2; Tocris, cat. 2296). The 227483-062-R1-J1-PDC line was cultured in Panc media, containing all 6E components except hFGF-2, with the addition of 500 nM SB-431542 (Selleckchem, cat. S1067) and 10 nM gastrin (Tocris, cat. 3006). […]
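Also: spheroids exposed to compounds for seven days.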
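For viability, T/C in this document: 100% = DMSO vehicle control wells.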

Turning to `CC1COCCN1c1cc(C2(S(C)(=N)=O)CC2)nc(-c2ccnc3[nH]ccc23)n1` (stereo unspecified), the viability, T/C is 91.5% and 90.7% (compound 0.0316 µM); 97.5% and 93.1% (compound 0.1 µM); 94.5% and 104% (compound 0.316 µM); 108% and 91.3% (compound 1 µM); 109% and 108% (compound 3.16 µM); 102% and 113% (compound 10 µM). In addition, the IC50 (curve of compound) was above 10 µM.

In the case of `COC1C=CCC(C)C(C)S(=O)(=O)NC(=O)c2ccc3c(c2)N(CC2CCC21)CC1(CCCc2cc(Cl)ccc21)CO3` (stereo unspecified) + CNC(=O)c1ccc(Nc2nc(OC3CCCC3)c3c(-c4ccc5nc(C)oc5c4)c[nH]c3n2)c(OC)c1, the IC50 (curve of first compound, second compound 0.0316 µM) was above 10 µM; the IC50 (curve of first compound, second compound 0.1 µM) was above 10 µM; the IC50 (curve of first compound, second compound 0.316 µM) was above 10 µM; the IC50 (curve of first compound, second compound 1 µM) was above 10 µM; the IC50 (curve of first compound, second compound 3.16 µM) was above 10 µM; the IC50 (curve of first compound, second compound 10 µM) is above 10 µM. Besides, the viability, T/C reads like this: (second compound 0.0316 µM, first compound 0.0316 µM) 88.7%; (second compound 0.0316 µM, first compound 0.1 µM) 82.8%; (second compound 0.0316 µM, first compound 0.316 µM) 96.8%; (second compound 0.0316 µM, first compound 1 µM) 105%; (second compound 0.0316 µM, first compound 3.16 µM) 103%; (second compound 0.0316 µM, first compound 10 µM) 85.9%. The viability, T/C is, setting by setting: (second compound 0.1 µM, first compound 0.0316 µM) 96%; (second compound 0.1 µM, first compound 0.1 µM) 99.7%; (second compound 0.1 µM, first compound 0.316 µM) 105%; (second compound 0.1 µM, first compound 1 µM) 96.4%; (second compound 0.1 µM, first compound 3.16 µM) 92.8%; (second compound 0.1 µM, first compound 10 µM) 91.3%. Besides, the viability, T/C (second compound 0.316 µM, first compound 0.0316 µM) is 82.5%; the viability, T/C (second compound 0.316 µM, first compound 0.1 µM) was 77.9%; the viability, T/C (second compound 0.316 µM, first compound 0.316 µM) was 89.8%; the viability, T/C (second compound 0.316 µM, first compound 1 µM) was 89.7%; the viability, T/C (second compound 0.316 µM, first compound 3.16 µM) was 98.8%; the viability, T/C (second compound 0.316 µM, first compound 10 µM) was 102%. The viability, T/C is, setting by setting: (second compound 1 µM, first compound 0.0316 µM) 83.2%; (second compound 1 µM, first compound 0.1 µM) 74.1%; (second compound 1 µM, first compound 0.316 µM) 73.7%; (second compound 1 µM, first compound 1 µM) 74.9%; (second compound 1 µM, first compound 3.16 µM) 91.8%; (second compound 1 µM, first compound 10 µM) 105%. In addition, the viability, T/C runs as follows: (second compound 3.16 µM, first compound 0.0316 µM) 71.2%; (second compound 3.16 µM, first compound 0.1 µM) 69.7%; (second compound 3.16 µM, first compound 0.316 µM) 72.9%; (second compound 3.16 µM, first compound 1 µM) 68.4%; (second compound 3.16 µM, first compound 3.16 µM) 94.2%; (second compound 3.16 µM, first compound 10 µM) 102%. The viability, T/C is 65.5% (second compound 10 µM, first compound 0.0316 µM); 68.6% (second compound 10 µM, first compound 0.1 µM); 69.1% (second compound 10 µM, first compound 0.316 µM); 66.7% (second compound 10 µM, first compound 1 µM); 82.3% (second compound 10 µM, first compound 3.16 µM); 85.9% (second compound 10 µM, first compound 10 µM).

In the case of `CC1(C)CCC(CN2CCN(c3ccc(C(=O)NS(=O)(=O)c4ccc(NCC5CCOCC5)c([N+](=O)[O-])c4)c(Oc4cnc5[nH]ccc5c4)c3)CC2)=C(c2ccc(Cl)cc2)C1`, the viability, T/C by setting is: (compound 0.0316 µM) 94.5% and 89%; (compound 0.1 µM) 101% and 106%; (compound 0.316 µM) 98.6% and 95%; (compound 1 µM) 100% and 93.7%; (compound 3.16 µM) 120% and 119%; (compound 10 µM) 33.1% and 28%. Further, the IC50 (curve of compound) is 7.56 µM and 7.07 µM.
